In patent US10370405B2, “C-3 novel triterpenone with C-28 amide derivatives as HIV inhibitors” (HETERO LABS LIMITED, priority 2016, dated 2019):
Like-named read-outs stand apart in the source and are kept apart here.

Experiments:
HIV-1 strain 92HT599 = assay: Antiviral activity: p24 estimation in MT2 cells infected with HIV-1; assay type: cell-based; details: for IC50: Human immunodeficiency virus 1, MT2; for inhibition at 0.01 µM / inhibition at 0.1 µM / inhibition at 1 µM: Human immunodeficiency virus 1, MT2 cells, HIV-1 92HT599, p24, ~96 hours
Protocol: MT2 cells were infected with HIV-1 strain 92HT599 (10 TCID 50/30000 cells). The infected cells were plated at the concentration of ˜30 000 cells per well in 96 well plate. Test compound was added to the micro plate in defined format with the final concentration of DMSO (vehicle) is not more than 1%. Incubation was carried out in CO2 incubator for ˜96 hours for viral infection. At the end of incubation period an aliquot from each well was taken for p24 estimation. The quantitation of p24 is an index for antiviral activity of the compound. Percent inhibition was calculated with reference to control values (vehicle controls). P-24 estimation was carried out using Advance biosciences kit as per the procedure detailed by supplier.

[1] = Single dose oral pharmacokinetic study; assay type: in vivo; details: mouse, plasma; Mice oral PK @30 mg/kg
Protocol: The test item was administered through oral route to animals (rat/mice) at 30 mg/kg dose in a suitable vehicle (10% Solutol+20% PEG) at 10 ml/kg dose volume. Blood samples (˜50 μL at each time point) were collected from retro-orbital plexus using K3 EDTA as anticoagulant in eppendorf tubes at defined time intervals 30 minutes, 1 hour, 2 hour, 4 hour, 8 hour, 24 hour & 48 hour under light ether anaesthesia. The samples were centrifuged at 3500×g to separate plasma and stored at −80° C. until analysis. Plasma […] for Mice were processed as per described in sample preparation.
Standard solutions of the test compound 1 mg/mL solutions were prepared in DMSO and further dilutions were made in methanol. The calibration curve samples for LCMSMS analysis were prepared by spiking 25 μl of Mice plasma with 2.5 μl and of the appropriate working standard solution to obtain final concentrations 0.078, 0.156, 0.312, 0.625, 1.25, 2.5, 5, 10, 20 & 40 µg/ml. To the test compound plasma extraction was carried out using Acetonitrile precipitation. After reconstitution with solvent (50% Acetonitrile in Buffer) samples were analyzed by LCMSMS to get the concentrations to calculate PK Parameters.

[2] = 0% serum, read-out: Antiviral activity IC50 (nM) 0%
[3] = read-out: Antiviral activity IC50 (nM) 40% serum

Protocol for in vitro: On day 1 calculate the number of cells required for the assay and seed 3×10^4 cells in 200 μl per well. Weigh the compound and dissolve it in DMSO to get 10 mM stock which is further diluted to 3 mM and 1 mM. The drugs from these stocks were added to plate to get final concentration of 100 μM, 30 μM and 10 μM. […] Incubate for 4 days in 5% CO2 incubator at 37° C. On day 4, 100 μl of medium was removed from each well without disturbing the cells. Add 10 μl of MTT reagent and incubate for 4 hours at 5% CO2 incubator at 37° C. for formation of crystals. Add 200 μl of 0.1N acidic isopropanol to dissolve the crystals and read the plate at 590 nm.

Structure (SMILES) | IC50 (HIV-1 strain 92HT599; [2]) | IC50 (HIV-1 strain 92HT599; [3]) | inhibition at 0.01 µM (HIV-1 strain 92HT599) | inhibition at 0.1 µM (HIV-1 strain 92HT599) | inhibition at 1 µM (HIV-1 strain 92HT599) | viability at 4 days, 10 μM (in vitro) | viability at 4 days, 30 μM (in vitro) | viability at 4 days, 100 μM (in vitro) | AUC(0-t) [1] | Cmax [1]
CC(C)C1=C2[C@H]3CC[C@@H]4[C@@]5(C)CC[C@H](OC(=O)[C@H]6C[C@@H](C(=O)O)C6(C)C)C(C)(C)[C@@H]5CC[C@@]4(C)[C@]3(C)CC[C@@]2(C(=O)N2CCCC2c2ncc(-c3ccccc3)[nH]2)CC1=O (stereo partly drawn) [Example 1, (1R,3S)-3-((((3aR,5aR,5bR,7aR,9S,11aR,11bR,13aS)-1-isopropyl-5a,5b,8,8,11a-pentamethyl-2-oxo-3a-((S)-2-(5-phenyl-1H-imidazol-2-yl)pyrrolidine-1-carbonyl)-3,3a,4,5,5a,5b,6,7,7a,8,9,10,11,11a,11b,12,13,13a-octadecahydro-2H-cyclopenta[a]chrysen-9-yl)oxy)carbonyl)-2,2-dimethlcyclobutane-1-carboxylic acid] | 5.21 nM | 3.92 nM | 100% | 98% | 99% | 80% | 67% | 62% | 69800 ng·h/mL | 8650 ng/mL
CC(C)C1=C2[C@H]3CC[C@@H]4[C@@]5(C)CC[C@H](OC(=O)[C@H]6C[C@@H](C(=O)O)C6(C)C)C(C)(C)[C@@H]5CC[C@@]4(C)[C@]3(C)CC[C@@]2(C(=O)N2CCC[C@H]2c2ncc(-c3ccc(F)cc3)[nH]2)CC1=O [Example 2, (1R,3S)-3-((((3aR,5aR,5bR,7aR,9S,11aR,11bR,13aS)-3a-((S)-2-(5-(4-fluorophenyl)-1H-imidazol-2-yl)pyrrolidine-1-carbonyl)-1-isopropyl-5a,5b,8,8,11a-pentamethyl-2-oxo-3,3a,4,5,5a,5b,6,7,7a,8,9,10,11,11a,11b,12,13,13a-octadecahydro-2H-cyclopenta[a]chrysen-9-yl)oxy)carbonyl)-2,2-dimethlcyclobutane-1-carboxylic acid] | 3.89 nM | 51.2 nM | 60% | 100% | 100% | 100% | 100% | 90% | 148000 ng·h/mL | 11900 ng/mL
CC(C)C1=C2[C@H]3CC[C@@H]4[C@@]5(C)CC[C@H](OC(=O)[C@H]6C[C@@H](C(=O)O)C6(C)C)C(C)(C)[C@@H]5CC[C@@]4(C)[C@]3(C)CC[C@@]2(C(=O)N2CCC[C@H]2c2ncc(-c3cccnc3)[nH]2)CC1=O [Example 3, (1R,3S)-3-((((3aR,5aR,5bR,7aR,9S,11aR,11bR,13aS)-1-isopropyl-5a,5b,8,8,11a-pentamethyl-2-oxo-3a-((S)-2-(5-(pyridin-3-yl)-1H-imidazol-2-yl)pyrrolidine-1-carbonyl)-3,3a,4,5,5a,5b,6,7,7a,8,9,10,11,11a,11b,12,13,13a-octadecahydro-2H-cyclopenta[a]chrysen-9-yl)oxy)carbonyl)-2,2-dimethlcyclobutane-1-carboxylic acid] | 1.82 nM | 0.81 nM | 100% | 100% | 100% | 98% | 67% | 45% | 48600 ng·h/mL | 8530 ng/mL
CC(C)C1=C2[C@H]3CC[C@@H]4[C@@]5(C)CC[C@H](OC(=O)[C@H]6C[C@@H](C(=O)O)C6(C)C)C(C)(C)[C@@H]5CC[C@@]4(C)[C@]3(C)CC[C@@]2(C(=O)N2CC[C@@H](N3CCCC3)C2)CC1=O [Example 4, (1R,3S)-3-((((3aR,5aR,5bR,7aR,9S,11aR,11bR,13aS)-3a-((R)-[1,3′-bipyrrolidine]-1′-carbonyl)-1-isopropyl-5a,5b,8,8,11a-pentamethyl-2-oxo-3,3a,4,5,5a,5b,6,7,7a,8,9,10,11,11a,11b,12,13,13a-octadecahydro-2H-cyclopenta[a]chrysen-9-yl)oxy)carbonyl)-2,2-dimethylcyclobutane-1-carboxylic acid] | 0.68 nM | 54.5 nM | 100% | 100% | 100% | 62% | 6% | 2% |  | 
CC(C)C1=C2[C@H]3CC[C@@H]4[C@@]5(C)CC[C@H](OC(=O)[C@H]6C[C@@H](C(=O)O)C6(C)C)C(C)(C)[C@@H]5CC[C@@]4(C)[C@]3(C)CC[C@@]2(C(=O)N2CCC[C@H]2CN2CCC[C@H]2CO)CC1=O [Example 5, (1R,3S)-3-((((3aR,5aR,5bR,7aR,9S,11aR,11bR,13aS)-3a-((S)-2-(((S)-2-(hydroxymethyl)pyrrolidin-1-yl)methyl)pyrrolidine-1-carbonyl)-1-isopropyl-5a,5b,8,8,11a-pentamethyl-2-oxo-3,3a,4,5,5a,5b,6,7,7a,8,9,10,11,11a,11b,12,13,13a-octadecahydro-2H-cyclopenta[a]chrysen-9-yl)oxy)carbonyl)-2,2-dimethlcyclobutane-1-carboxylic acid] | 0.93 nM | 25.5 nM | 100% | 100% | 100% | 70% | 70% | 73% |  | 
CC(C)C1=C2[C@H]3CC[C@@H]4[C@@]5(C)CC[C@H](OC(=O)[C@H]6C[C@@H](C(=O)O)C6(C)C)C(C)(C)[C@@H]5CC[C@@]4(C)[C@]3(C)CC[C@@]2(C(=O)N2CCC[C@H]2CN2CCC(F)(F)C2)CC1=O [Example 6, (1R,3S)-3-((((3aR,5aR,5bR,7aR,9S,11aR,11bR,13aS)-3a-((S)-2-((3,3-difluoropyrrolidin-1-yl)methyl)pyrrolidine-1-carbonyl)-1-isopropyl-5a,5b,8,8,11a-pentamethyl-2-oxo-3,3a,4,5,5a,5b,6,7,7a,8,9,10,11,11a,11b,12,13,13a-octadecahydro-2H-cyclopenta[a]chrysen-9-yl)oxy)carbonyl)-2,2-dimethylcyclobutane-1-carboxylic acid] | 0.72 nM | 203 nM | 100% | 100% | 100% | 57% | 10% | 6% | 76600 ng·h/mL | 11500 ng/mL
CC(C)C1=C2[C@H]3CC[C@@H]4[C@@]5(C)CC[C@H](OC(=O)[C@H]6C[C@@H](C(=O)O)C6(C)C)C(C)(C)[C@@H]5CC[C@@]4(C)[C@]3(C)CC[C@@]2(C(=O)N2CCC[C@H]2CN2CCC(F)(F)CC2)CC1=O [Example 7, (1R,3S)-3-((((3aR,5aR,5bR,7aR,9S,11aR,11bR,13aS)-3a-((S)-2-((4,4-difluoropiperidin-1-yl)methyl)pyrrolidine-1-carbonyl)-1-isopropyl-5a,5b,8,8,11a-pentamethyl-2-oxo-3,3a,4,5,5a,5b,6,7,7a,89,10,11,11a,11b,12,13,13a-octadecahydro-2H-cyclopenta[a]chrysen-9-yl)oxy)carbonyl)-2,2-dimethylcyclobutane-1-carboxylic acid] | 24.7 nM | 313 nM | 100% | 100% | 100% | 65% | 9% | 8% | 28800 ng·h/mL | 7410 ng/mL
CC(C)C1=C2[C@H]3CC[C@@H]4[C@@]5(C)CC[C@H](OC(=O)[C@H]6C[C@@H](C(=O)O)C6(C)C)C(C)(C)[C@@H]5CC[C@@]4(C)[C@]3(C)CC[C@@]2(C(=O)N2CCC[C@H]2CN2CCC(F)CC2)CC1=O [Example 10, (1R,3S)-3-((((3aR,5aR,5bR,7aR,9S,11aR,11bR,13aS)-3a-((S)-2-((4-fluoropiperidin-1-yl)methyl)pyrrolidine-1-carbonyl)-1-isopropyl-5a,5b,8,8,11a-pentamethyl-2-oxo-3,3a,4,5,5a,5b,6,7,7a,8,9,10,11,11a,11b,12,13,13a-octadecahydro-2H-cyclopenta[a]chrysen-9-yl)oxy)carbonyl)-2,2-dimethylcyclobutane-1-carboxylic acid] | 1.06 nM | 0.93 nM | 97% | 100% | 100% | 31% | 4% | 4% |  | 
